The results in this text go back to US20250000874A1, “BACTERIAL METABOLITES AND THEIR USE IN REDUCING INFLAMMATION” (LOYOLA UNIVERSITY OF CHICAGO, priority 2023, published 2025).

Entries after “also recorded” stand apart in the source; their conditions may differ.

One assay concerns mouse peritonitis. Put plainly: LPS-induced mouse peritonitis model, peritoneal neutrophils by flow cytometry (Ly6G). The format is in vivo. As to conditions: JE i.p. two consecutive days, LPS i.p. day 3, 4 hours, vs PBS. As for the experimental part: FIG. 4A-4B. Bacterial Supernatant <10 kD fraction inhibits mouse peritonitis in vivo. 6-week old B6 mice were i.p. injected with <10 kD fraction from LF, TS medium, or PBS (500 μL/dose) at day 0 and day 1. At day 2, mice were given LPS (10 μg/mouse) or PBS via i.p. […] (FIG. 4A) The recruited neutrophils were quantified by flow cytometry using the neutrophil markers Ly6G and data were analyzed by FlowJo Software. (FIG. 4B) Neutrophil numbers are shown as mean±s.d., **p<0.01, n=3 per group.
FIG. 9A-9C. FACS representation of mouse peritonitis model. Histograms were made from FACS gating of cells collected from the peritoneal cavity. (FIG. 9A) Mice were pre-treated for two consecutive days with compound JE and then received LPS. (FIG. 9B) Mice received only LPS. (FIG. 9C) Another group received PBS injected for two consecutive days to serve as a negative control. […]
Commensal bacteria are non-invading bacteria that habit the host gastrointestinal tract without causing harm. […] We then measured the ability of the <10 kDa fraction to cross intestinal epithelium with the tight junctions without disrupting the integrity. […] To determine if the <10 kD fraction suppresses LPS-induced inflammatory responses in vivo, we intraperitoneally injected the <10 kDa fraction into C57/Bl6 mice followed by LPS and then analyzed peritoneal numbers of neutrophils by flow cytometry. […]

The next assay deals with dry eye disease model. As to the kind of experiment: Murine experimental dry eye (DED) model, ICES. Type of assay: in vivo, mouse. The text has this:
FIG. 12. Corneal Florescein Staining with JE-treated Experimental Dry Eye. Mean corneal staining score with JE/control topical treatment (4 times/day) starting 3 weeks after housing in ICES. Group 1: Normal control (non DED); group 2: Dry Eye treated with JE (JE+DED); Group 3: Dry Eye treated with vehicle (control DED). P value: *: <0.05. One of two experiments is shown.
FIG. 25. Pro-Inflammatory IL-6 Cytokine Expression in Corneal Tissues Isolated from Control, Vehicle Control, and Treatment Groups. Corneal samples from the three groups were isolated, stabilized in RNA later, and stored at-80. Corneal samples were homogenized, and RNA was purified using RNAeasy mini-kit. A total of 0.5 μg-1 μg RNA was yielded. RT-qPCR was performed. Values were normalized to GAPDH control, and fold induction was measured as 2-ΔΔCT. One of two experiments is shown.
We further tested if JE reduced corneal tissue damage in a murine DED model. Thus, normal C57BL/6J mice were maintained in relative humidity 60% to 80%, no airflow at 21-23° C. as normal control (Group 1). The experimental dry eye was induced by using an Intelligently Controlled Environmental System (ICES). Dry eye mice (Group 2 and Group 3) were housed in ICES with relative humidity at 13+4%, airflow of 2.2+0.2 m/s, and temperature of 21-23° for 3 weeks. Group 2 mice were treated with 10 μL JE at 50 μM 0.35% (v/v) DMSO in PBS and group 3 (vehicle control) were treated with 10 μL of 0.35% (v/v) DMSO in PBS, 4 time/day topically for 14 days. Corneal fluorescein staining was evaluated at week 0, 3 and 5. The stained area was assessed according to a standardized grading system ranging from 0 to 4, with the corneal surface divided into five regions. Then the total scores from the five regions were analyzed. […] The data strongly support that JE (3,3-Difluoro-5-alpha-androstan-17-beta-yl acetate) can be used as therapeutic agent for non-infectious inflammatory diseases. […]
This pattern of staining points to significant corneal damage and inflammation. […] Next, the IL-6 cytokine expression was measured in corneal samples using RT-qPCR. […]

Take `CC(=O)O[C@@H]1CC[C@H]2[C@H]3CC[C@H]4CC(F)(F)CC[C@]4(C)[C@H]3CC[C@]12C` [JE, 3,3-Difluoro-5-alpha-androstan-17-beta-yl acetate]: in the assay with mouse peritonitis, the peritoneal neutrophil recruitment entry is given as “reduced”. Moreover, in the assay on dry eye disease model (10 μL JE 50 μM topically 4 times/day for 14 days after 3 weeks in ICES, vs vehicle control, day 35), the “corneal fluorescein staining score” value was “significantly reduced”. Moreover, the “IL-6 expression in corneal samples (RT-qPCR)” value in the assay on dry eye disease model (JE eye drops four times a day for 14 days) was “decreased; also recorded: did not return to the baseline”. The “surface area of corneal damage” value in the assay with dry eye disease model (JE eye drops four times a day for 14 days, relative to vehicle control) was “decrease”.
